Data: ChEMBL document CHEMBL1151245, “Structures and histamine release inhibitory effects of prenylated orcinol derivatives from Rhododendron dauricum” (J Nat Prod, 2004)

What follows are compounds tested on Mast cell (assay: Inhibition of compound 48/80-induced histamine release in Wistar rat peritoneal mast cells).
Assay type: functional, cell-based; call rule not given here
`CC(C)=CCC/C(C)=C/CC[C@]1(C)C=Cc2c(O)cc(C)cc2O1` [CONFLUENTIN] was tested, and the IC50 was 205 µM.
With `C=C(C)C(O)CC/C(C)=C/CC[C@]1(C)C=Cc2c(O)cc(C)cc2O1` (stereo partly drawn) [DAURICHROMENE A] the IC50 was 1.6 µM.
In the case of `C=C(CCC=C(C)C)C(O)CC[C@]1(C)C=Cc2c(O)cc(C)cc2O1` (stereo partly drawn) [DAURICHROMENE B], the IC50 is reported as 4.4 µM.
For `C/C(=C\CC[C@]1(C)C=Cc2c(O)cc(C)cc2O1)C/C=C\C(C)(C)O` [DAURICHROMENE C], the IC50 was 87.4 µM.
`C/C(=C\CC/C(C)=C/CC[C@]1(C)C=Cc2c(O)cc(C)cc2O1)CO` [DAURICHROMENE D] showed an IC50 of 1.3 µM.
Compound `CC(C)=CCC/C(C)=C/CC/C(C)=C/Cc1c(O)cc(C)cc1O` [GRIFOLIN] has an IC50 of 81.6 µM.
`COc1ccc2c(c1)c(CC(=O)O)c(C)n2C(=O)c1ccc(Cl)cc1` [INDOMETHACIN] gave an IC50 of 250 µM.
In the case of `Cc1cc(O)cc(O)c1` [ORCINOL], the IC50 is reported as “Not Active”.
